#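 Five concentrations, 48 hours, 96-well plates. GI50 marks 50% less growth. Definition used: TGI = concentration required for complete inhibition of growth.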 *1 amine or outer side, *2 acyl side, *3 side chain or, on linkers, in order; H or OH if unused. Where a SMILES comes first, the peptide text is derived from it. Bridges are numbered along the chain shown (N, C = ends). [ ]: non-standard residue; d: D form. The star is where a group is joined. Phe(3-F) = N[C@@H](Cc1cccc(F)c1)C(=O)O; Pro(4R-Me) = C[C@H]1CN[C@H](C(=O)O)C1; aThr = C[C@H](O)[C@H](N)C(=O)O; Pip = O=C(O)[C@@H]1CCCCN1; X8 = CCc1ccc(N*)c(F)c1; CO = O=C([*:1])[*:2]
# What was measured:
# Assay in all cases: NCI tumour cell line growth inhibition, 48 h
# TK-10 renal = tested on: TK-10 renal
# A498 renal = tested on: A498 renal
# SK-OV-3 ovarian = tested on: SK-OV-3 ovarian
# HL-60(TB) leukemia = tested on: HL-60(TB) leukemia
# IGROV1 ovarian = tested on: IGROV1 ovarian
# COLO 205 colon = tested on: COLO 205 colon
# NCI/ADR-RES ovarian = tested on: NCI/ADR-RES ovarian
# A549 NSCLC = tested on: A549 NSCLC
# SW-620 colon = tested on: SW-620 colon
# SNB-75 CNS = tested on: SNB-75 CNS
# HOP-92 NSCLC = tested on: HOP-92 NSCLC
# PC-3 prostate = tested on: PC-3 prostate
# SK-MEL-5 melanoma = tested on: SK-MEL-5 melanoma
# OVCAR-4 ovarian = tested on: OVCAR-4 ovarian
# HS 578T breast = tested on: HS 578T breast
# 786-0 renal = tested on: 786-0 renal
# MOLT-4 leukemia = tested on: MOLT-4 leukemia
# UACC-62 melanoma = tested on: UACC-62 melanoma
# DU-145 prostate = tested on: DU-145 prostate
# SF-268 CNS = tested on: SF-268 CNS
# MDA-MB-435 = tested on: MDA-MB-435
# HCT-15 colon = tested on: HCT-15 colon
# MCF7 breast = tested on: MCF7 breast
# KM12 colon = tested on: KM12 colon
# CCRF-CEM leukemia = tested on: CCRF-CEM leukemia
# ACHN renal = tested on: ACHN renal
# UO-31 renal = tested on: UO-31 renal
# UACC-257 melanoma = tested on: UACC-257 melanoma
# M14 melanoma = tested on: M14 melanoma
# LOX IMVI melanoma = tested on: LOX IMVI melanoma
# MDA-MB-231 breast = tested on: MDA-MB-231 breast
# T-47D breast = tested on: T-47D breast
# U251 CNS = tested on: U251 CNS
# HOP-62 NSCLC = tested on: HOP-62 NSCLC
# NCI-H460 lung = tested on: NCI-H460 lung
# K-562 leukemia = tested on: K-562 leukemia
# NCI-H226 lung = tested on: NCI-H226 lung
# EKVX NSCLC = tested on: EKVX NSCLC
# SF-539 CNS = tested on: SF-539 CNS
# BT-549 breast = tested on: BT-549 breast
# OVCAR-3 ovarian = tested on: OVCAR-3 ovarian
# HCT-116 colon = tested on: HCT-116 colon
# CAKI-1 renal = tested on: CAKI-1 renal
# SNB-19 CNS = tested on: SNB-19 CNS
# MALME-3M melanoma = tested on: MALME-3M melanoma
# SK-MEL-28 melanoma = tested on: SK-MEL-28 melanoma
# NCI-H23 lung = tested on: NCI-H23 lung
# NCI-H522 lung = tested on: NCI-H522 lung
# HT29 colon = tested on: HT29 colon
# SR leukemia = tested on: SR leukemia
# RPMI-8226 leukemia = tested on: RPMI-8226 leukemia
# HCC-2998 colon = tested on: HCC-2998 colon
# OVCAR-5 ovarian = tested on: OVCAR-5 ovarian
# OVCAR-8 ovarian = tested on: OVCAR-8 ovarian
# SF-295 CNS = tested on: SF-295 CNS
# SK-MEL-2 melanoma = tested on: SK-MEL-2 melanoma
# RXF 393 renal = tested on: RXF 393 renal
# SN12C renal = tested on: SN12C renal
smiles,measurement,setting,value
CCc1ccc(NC(=O)N[C@@H](Cc2cccc(F)c2)C(=O)N[C@@H]2C(=O)N3CCC[C@H]3C(=O)N3CCCC[C@H]3C(=O)N[C@@H](C)C(=O)N3C[C@H](C)C[C@H]3C(=O)O[C@H]2C)c(F)c1 ({X8-CO}-[Phe(3-F)][aThr]P[Pip]A[Pro(4R-Me)]; ester 2-C),GI50,TK-10 renal,608 nM
same,TGI,TK-10 renal,29100 nM
same,GI50,A498 renal,616 nM
same,TGI,A498 renal,7340 nM
same,GI50,SK-OV-3 ovarian,583 nM
same,GI50,HL-60(TB) leukemia,135 nM
same,TGI,HL-60(TB) leukemia,1700 nM
same,GI50,IGROV1 ovarian,614 nM
same,TGI,IGROV1 ovarian,> 47700 nM
same,GI50,COLO 205 colon,180 nM
same,TGI,COLO 205 colon,511 nM
same,GI50,NCI/ADR-RES ovarian,962 nM
same,TGI,NCI/ADR-RES ovarian,> 51200 nM
same,GI50,A549 NSCLC,509 nM
same,TGI,A549 NSCLC,> 79500 nM
same,GI50,SW-620 colon,486 nM
same,TGI,SW-620 colon,> 60700 nM
same,GI50,SNB-75 CNS,202 nM
same,TGI,SNB-75 CNS,3590 nM
same,GI50,HOP-92 NSCLC,380 nM
same,TGI,HOP-92 NSCLC,6750 nM
same,GI50,PC-3 prostate,191 nM
same,TGI,PC-3 prostate,> 100000 nM
same,GI50,SK-MEL-5 melanoma,354 nM
same,TGI,SK-MEL-5 melanoma,1570 nM
same,GI50,OVCAR-4 ovarian,163 nM
same,TGI,OVCAR-4 ovarian,> 19900 nM
same,GI50,HS 578T breast,264 nM
same,TGI,HS 578T breast,4580 nM
same,GI50,786-0 renal,421 nM
same,TGI,786-0 renal,75200 nM
same,GI50,MOLT-4 leukemia,594 nM
same,TGI,MOLT-4 leukemia,18100 nM
same,GI50,UACC-62 melanoma,369 nM
same,TGI,UACC-62 melanoma,10100 nM
same,GI50,DU-145 prostate,285 nM
same,TGI,DU-145 prostate,> 100000 nM
same,GI50,SF-268 CNS,463 nM
same,TGI,SF-268 CNS,53400 nM
same,GI50,MDA-MB-435,183 nM
same,TGI,MDA-MB-435,6010 nM
same,GI50,HCT-15 colon,347 nM
same,TGI,HCT-15 colon,7220 nM
same,GI50,MCF7 breast,272 nM
same,TGI,MCF7 breast,19300 nM
same,GI50,KM12 colon,919 nM
same,TGI,KM12 colon,18000 nM
same,GI50,CCRF-CEM leukemia,252 nM
same,TGI,CCRF-CEM leukemia,29900 nM
same,GI50,ACHN renal,503 nM
same,TGI,ACHN renal,> 53700 nM
same,GI50,UO-31 renal,377 nM
same,TGI,UO-31 renal,16500 nM
same,GI50,UACC-257 melanoma,319 nM
same,TGI,UACC-257 melanoma,5320 nM
same,GI50,M14 melanoma,214 nM
same,TGI,M14 melanoma,2090 nM
same,GI50,LOX IMVI melanoma,369 nM
same,TGI,LOX IMVI melanoma,16200 nM
same,GI50,MDA-MB-231 breast,283 nM
same,TGI,MDA-MB-231 breast,2270 nM
same,GI50,T-47D breast,337 nM
same,TGI,T-47D breast,18900 nM
same,GI50,U251 CNS,318 nM
same,TGI,U251 CNS,31800 nM
same,GI50,HOP-62 NSCLC,562 nM
same,TGI,HOP-62 NSCLC,> 53200 nM
same,GI50,NCI-H460 lung,262 nM
same,TGI,NCI-H460 lung,12900 nM
same,GI50,K-562 leukemia,52.6 nM
same,TGI,K-562 leukemia,> 56200 nM
same,GI50,NCI-H226 lung,351 nM
same,TGI,NCI-H226 lung,5230 nM
same,GI50,EKVX NSCLC,367 nM
same,TGI,EKVX NSCLC,> 58100 nM
same,GI50,SF-539 CNS,541 nM
same,TGI,SF-539 CNS,12600 nM
same,GI50,BT-549 breast,199 nM
same,TGI,BT-549 breast,2800 nM
same,GI50,OVCAR-3 ovarian,337 nM
same,TGI,OVCAR-3 ovarian,6870 nM
same,GI50,HCT-116 colon,60.4 nM
same,TGI,HCT-116 colon,2620 nM
same,GI50,CAKI-1 renal,296 nM
same,TGI,CAKI-1 renal,13500 nM
same,GI50,SNB-19 CNS,218 nM
same,TGI,SNB-19 CNS,> 82900 nM
same,GI50,MALME-3M melanoma,464 nM
same,TGI,MALME-3M melanoma,11400 nM
same,GI50,SK-MEL-28 melanoma,589 nM
same,TGI,SK-MEL-28 melanoma,13100 nM
same,GI50,NCI-H23 lung,425 nM
same,TGI,NCI-H23 lung,20200 nM
same,GI50,NCI-H522 lung,182 nM
same,TGI,NCI-H522 lung,6820 nM
same,GI50,HT29 colon,352 nM
same,TGI,HT29 colon,2750 nM
same,GI50,SR leukemia,380 nM
same,TGI,SR leukemia,10200 nM
same,GI50,RPMI-8226 leukemia,55.3 nM
same,TGI,RPMI-8226 leukemia,4340 nM
same,GI50,HCC-2998 colon,353 nM
same,TGI,HCC-2998 colon,2710 nM
same,GI50,OVCAR-5 ovarian,439 nM
same,TGI,OVCAR-5 ovarian,4660 nM
same,GI50,OVCAR-8 ovarian,145 nM
same,TGI,OVCAR-8 ovarian,> 100000 nM
same,GI50,SF-295 CNS,270 nM
same,TGI,SF-295 CNS,1710 nM
same,GI50,SK-MEL-2 melanoma,243 nM
same,TGI,SK-MEL-2 melanoma,2020 nM
same,GI50,RXF 393 renal,948 nM
same,TGI,RXF 393 renal,7960 nM
same,GI50,SN12C renal,294 nM
same,TGI,SN12C renal,> 57300 nM

# From PubChem BioAssay (NCI)
